Assays:
[1] = biological target: HLA-A*0201-β2m-… peptide-complex (human); assay: sandwich ELISA: W6/32 coated, MHC complex added, HRP rabbit anti-β2m detection; reference: free β2m
[2] = tested on: Bcl-X(L)-specific, CD8 positive T cells; conditions: PBL from a breast cancer patient, 106 PBL/well in doublets, compared to the absence of added peptide, FIG. 11; cited from earlier work
[3] = tested on: T2 cells loaded with Bcl-X(L)173-182 peptide; conditions: different concentrations of peptide, E:T ratio 1:1, FIG. 14; cited from earlier work

Row | Substance | OD450 ratio against the negative control β2m [1] [fold] | ELISPOT detection of BclX(L) specific T-cells (number of spots, IFN-gamma producing T-cells) [2] | effect of the peptide on killing of pulsed T2 target cells by clone 9 [3]
1 | W6/32 mouse-anti-HLA-ABC antibody (Dako M0736) | > 6 |  | 
2 | YLNDHLEPWI (listed as Homo sapiens) |  | clearly shows the presence of BclX(L) specific T-cells | significant even at low concentrations

Source: patent US10968269B1, “MHC multimers in borrelia diagnostics and disease” (Agilent Technologies, Inc., priority 2008, dated 2021)
